Results taken from US8680102B2, “Pyrrole derivatives, their preparation and their therapeutic application” (Sanofi, priority 2008, dated 2014).

What was measured:
[1] = target: T1, CB1 receptors present in the brain (Mus musculus, UniProt P47746); experiment: Measurement (2): ex vivo test of binding of [3H]-CP55940 in the brain; parameters: the CB1 receptors present in the brain in mice; from tissue; host or cells: mouse brain, after intravenous administration; conditions: iv route at 10 mg/kg, mice
T1 sequence (P47746 whole entry): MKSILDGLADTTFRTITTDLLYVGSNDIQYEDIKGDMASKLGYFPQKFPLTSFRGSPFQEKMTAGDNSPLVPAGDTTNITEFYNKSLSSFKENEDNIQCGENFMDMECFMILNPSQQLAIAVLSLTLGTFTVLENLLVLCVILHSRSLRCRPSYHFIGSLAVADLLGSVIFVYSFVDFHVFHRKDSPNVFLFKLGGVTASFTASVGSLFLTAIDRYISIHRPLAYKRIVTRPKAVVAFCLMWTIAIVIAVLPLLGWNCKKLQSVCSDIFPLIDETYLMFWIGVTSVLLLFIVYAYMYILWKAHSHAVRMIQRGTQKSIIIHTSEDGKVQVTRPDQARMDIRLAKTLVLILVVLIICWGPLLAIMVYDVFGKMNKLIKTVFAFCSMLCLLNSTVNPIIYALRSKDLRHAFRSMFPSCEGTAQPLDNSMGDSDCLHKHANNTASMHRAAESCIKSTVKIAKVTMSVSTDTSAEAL

[2] = target: T1, CB1 receptors present in the brain; experiment: Measurement (3): blocking of the hypothermic effect induced by CP55940; format: in vivo; parameters: from tissue; host or cells: whole animal, in vivo (brain CB1); conditions: iv route at 10 mg/kg
[3] = target: T2, CB1 receptors present at the periphery (Mus musculus, UniProt P47746); experiment: blocking of the inhibitory effect of CP55940 on the gastrointestinal transit; format: in vivo; conditions: po route at 10 mg/kg, mice
T2 construct: from tissue; host or cells: whole mouse, in vivo (peripheral / gastrointestinal CB1)
T2 sequence (P47746 whole entry): as above
Description: A percentage reversion of the effect of CP55940 greater than 50% at 10 mg/kg indicates a significant antagonist power at the level of the CB1 receptors present at the periphery.

[4] = Measurement (1): quantification of compound in brain and plasma by LC-MS/MS; format: in vivo; conditions: iv route at 3 mg/kg, mouse, read-out: Ratio: Quantity present in the brain / Quantity present in the plasma

| SMILES | inhibition at 10 mg/kg [1] [%] | % reversion of the hypothermic effect of CP55940 [2] [%] | % reversion of the effect of CP55940 on the GIT [3] [%] | Kp [4] |
| --- | --- | --- | --- | --- |
| NC(=O)C1(c2ccccc2)CCN(C(=O)c2cc(-c3ccc(Cl)cc3Cl)n(-c3ccc(Cl)cc3)c2CCCCO)CC1 [compound 13, 1-{[1-(4-chlorophenyl)-5-(2,4-dichlorophenyl)-2-(4-hydroxybutyl)-1H-pyrrol-3-yl]carbonyl}-4-phenylpiperidine-4-carboxamide] | 5 | 58 | 100 |  |
| NC(=O)C1(c2ccccc2)CCN(C(=O)c2cc(-c3ccc(Cl)cc3Cl)n(-c3ccc(Cl)cc3)c2CCO)CC1 [compound 14, 1-{[1-(4-chlorophenyl)-5-(2,4-dichlorophenyl)-2-(2-hydroxyethyl)-1H-pyrrol-3-yl]carbonyl}-4-phenylpiperidine-4-carboxamide] | 27 | 60 | 85 |  |
| NC(=O)C1(c2ccc(Cl)cc2)CCN(C(=O)c2cc(-c3ccc(Cl)cc3Cl)n(-c3ccc(Cl)cc3)c2CCCO)CC1 [compound 30, 4-(4-chlorophenyl)-1-{[1-(4-chlorophenyl)-5-(2,4-dichlorophenyl)-2-(3-hydroxypropyl)-1H-pyrrol-3-yl]carbonyl}piperidine-4-carboxamide] | 21 | 32 | 74 | 0.06 |
| NC(=O)C1(N2CCC(F)(F)CC2)CCN(C(=O)c2cc(-c3ccc(Cl)cc3Cl)n(-c3ccc(Cl)cc3)c2CCCCO)CC1 [compound 17, 1′-{[1-(4-chlorophenyl)-5-(2,4-dichlorophenyl)-2-(4-hydroxybutyl)-1H-pyrrol-3-yl]carbonyl}-4,4-difluoro-1,4′-bipiperidine-4′-carboxamide] | 23 | 60 | 97 |  |
